Laboratory results taken from the NIST ThermoML archive (doi:10.1016/j.jct.2008.10.007).
Numbers after ± are expanded uncertainties.

Tests used:
[1] = 298.15 K; 101 kPa; Liquid; Vibrating tube method
[2] = xn = mol fraction of the nth substance listed; conditions: 298.15 K, 101 kPa, Liquid, Vibrating tube method
[3] = excess molar enthalpy (molar enthalpy of mixing); xn = mol fraction of the nth substance listed; conditions: 298.15 K, 101 kPa, Liquid, Calvet calorimetry

## CCCOC=O [propyl methanoate]
[1]
  mass density: 899.81 ± 1.6 kg/m3

## CCCOC(C)=O [propyl ethanoate]
[1]
  mass density: 882.08 ± 0.23 kg/m3

## CCCOC(=O)CCC [propyl butanoate]
[1]
  mass density: 867.9 ± 0.23 kg/m3

## ClCCCCCCCl [1,6-dichlorohexane] + CCCOC(=O)CC
[2]; x2 = 0.0665
  mass density: 1052.5 ± 5.3 kg/m3
[2]; x2 = 0.1321
  mass density: 1041.17 ± 4.7 kg/m3
[2]; x2 = 0.1948
  mass density: 1030.19 ± 4 kg/m3
[2]; x2 = 0.2568
  mass density: 1019.24 ± 3.5 kg/m3
[2]; x2 = 0.3171
  mass density: 1008.42 ± 3 kg/m3
[2]; x2 = 0.3785
  mass density: 997.31 ± 2.5 kg/m3
[2]; x2 = 0.556
  mass density: 964.22 ± 1.5 kg/m3
[2]; x2 = 0.7294
  mass density: 930.71 ± 0.82 kg/m3
[2]; x2 = 0.7852
  mass density: 919.58 ± 0.65 kg/m3
[2]; x2 = 0.8399
  mass density: 908.58 ± 0.51 kg/m3
[2]; x2 = 0.8955
  mass density: 897.26 ± 0.39 kg/m3
[2]; x2 = 0.949
  mass density: 886.33 ± 0.3 kg/m3
[3]; x2 = 0.0728
  excess molar enthalpy: -0.00598 ± 0.000239 kcal/mol
[3]; x2 = 0.1664
  excess molar enthalpy: -0.0131 ± 0.000478 kcal/mol
[3]; x2 = 0.2656
  excess molar enthalpy: -0.0232 ± 0.000478 kcal/mol
[3]; x2 = 0.3635
  excess molar enthalpy: -0.0354 ± 0.000956 kcal/mol
[3]; x2 = 0.4374
  excess molar enthalpy: -0.0418 ± 0.000956 kcal/mol
[3]; x2 = 0.4861
  excess molar enthalpy: -0.0459 ± 0.000956 kcal/mol
[3]; x2 = 0.5174
  excess molar enthalpy: -0.0483 ± 0.0012 kcal/mol
[3]; x2 = 0.5675
  excess molar enthalpy: -0.0495 ± 0.0012 kcal/mol
[3]; x2 = 0.6298
  excess molar enthalpy: -0.0483 ± 0.0012 kcal/mol
[3]; x2 = 0.7081
  excess molar enthalpy: -0.043 ± 0.000956 kcal/mol
[3]; x2 = 0.7895
  excess molar enthalpy: -0.0373 ± 0.000956 kcal/mol
[3]; x2 = 0.8738
  excess molar enthalpy: -0.0237 ± 0.000717 kcal/mol
[3]; x2 = 0.9478
  excess molar enthalpy: -0.011 ± 0.000478 kcal/mol

## ClCCCCl [1,3-dichloropropane] + CCCOC(C)=O
[2]; x2 = 0.051
  mass density: 1160.75 ± 6.7 kg/m3
[2]; x2 = 0.1013
  mass density: 1143.09 ± 6 kg/m3
[2]; x2 = 0.1519
  mass density: 1125.74 ± 5.3 kg/m3
[2]; x2 = 0.2062
  mass density: 1107.55 ± 4.6 kg/m3
[2]; x2 = 0.2602
  mass density: 1089.75 ± 4 kg/m3
[2]; x2 = 0.314
  mass density: 1072.51 ± 3.4 kg/m3
[2]; x2 = 0.4262
  mass density: 1037.75 ± 2.5 kg/m3
[2]; x2 = 0.5391
  mass density: 1004.31 ± 1.7 kg/m3
[2]; x2 = 0.5986
  mass density: 987.32 ± 1.4 kg/m3
[2]; x2 = 0.6602
  mass density: 970.1 ± 1.1 kg/m3
[2]; x2 = 0.7227
  mass density: 953.06 ± 0.87 kg/m3
[2]; x2 = 0.758
  mass density: 943.63 ± 0.75 kg/m3
[2]; x2 = 0.7981
  mass density: 933.1 ± 0.63 kg/m3
[2]; x2 = 0.8553
  mass density: 918.23 ± 0.48 kg/m3
[2]; x2 = 0.934
  mass density: 898.35 ± 0.33 kg/m3
[3]; x2 = 0.054
  excess molar enthalpy: -0.00908 ± 0.000239 kcal/mol
[3]; x2 = 0.1279
  excess molar enthalpy: -0.0206 ± 0.000478 kcal/mol
[3]; x2 = 0.2091
  excess molar enthalpy: -0.0349 ± 0.000717 kcal/mol
[3]; x2 = 0.2781
  excess molar enthalpy: -0.049 ± 0.0012 kcal/mol
[3]; x2 = 0.3637
  excess molar enthalpy: -0.0624 ± 0.00143 kcal/mol
[3]; x2 = 0.4401
  excess molar enthalpy: -0.0741 ± 0.00167 kcal/mol
[3]; x2 = 0.5067
  excess molar enthalpy: -0.0813 ± 0.00191 kcal/mol
[3]; x2 = 0.5223
  excess molar enthalpy: -0.0829 ± 0.00191 kcal/mol
[3]; x2 = 0.572
  excess molar enthalpy: -0.0837 ± 0.00191 kcal/mol
[3]; x2 = 0.6457
  excess molar enthalpy: -0.0779 ± 0.00167 kcal/mol
[3]; x2 = 0.738
  excess molar enthalpy: -0.0679 ± 0.00143 kcal/mol
[3]; x2 = 0.8364
  excess molar enthalpy: -0.0488 ± 0.0012 kcal/mol
[3]; x2 = 0.931
  excess molar enthalpy: -0.0237 ± 0.000717 kcal/mol

## CCCOC=O [propyl methanoate] + ClCCCl
[2]; x1 = 0.0502
  mass density: 1224.05 ± 7.8 kg/m3
[2]; x1 = 0.0994
  mass density: 1203.36 ± 7.2 kg/m3
[2]; x1 = 0.1495
  mass density: 1182.95 ± 6.7 kg/m3
[2]; x1 = 0.2004
  mass density: 1162.75 ± 6.2 kg/m3
[2]; x1 = 0.2543
  mass density: 1141.88 ± 5.7 kg/m3
[2]; x1 = 0.308
  mass density: 1121.58 ± 5.2 kg/m3
[2]; x1 = 0.3635
  mass density: 1101.24 ± 4.8 kg/m3
[2]; x1 = 0.4207
  mass density: 1080.82 ± 4.3 kg/m3
[2]; x1 = 0.4795
  mass density: 1060.31 ± 3.9 kg/m3
[2]; x1 = 0.5379
  mass density: 1040.49 ± 3.5 kg/m3
[2]; x1 = 0.599
  mass density: 1020.32 ± 3.2 kg/m3
[2]; x1 = 0.6634
  mass density: 999.69 ± 2.9 kg/m3
[2]; x1 = 0.7281
  mass density: 979.46 ± 2.5 kg/m3
[2]; x1 = 0.7928
  mass density: 959.73 ± 2.3 kg/m3
[2]; x1 = 0.8612
  mass density: 939.48 ± 2 kg/m3
[2]; x1 = 1
  mass density: 899.81 ± 1.6 kg/m3
[3]; x1 = 0.074
  excess molar enthalpy: -0.00956 ± 0.000239 kcal/mol
[3]; x1 = 0.1687
  excess molar enthalpy: -0.021 ± 0.000478 kcal/mol
[3]; x1 = 0.2733
  excess molar enthalpy: -0.0368 ± 0.000956 kcal/mol
[3]; x1 = 0.3675
  excess molar enthalpy: -0.0478 ± 0.0012 kcal/mol
[3]; x1 = 0.4473
  excess molar enthalpy: -0.0576 ± 0.0012 kcal/mol
[3]; x1 = 0.5035
  excess molar enthalpy: -0.0607 ± 0.00143 kcal/mol
[3]; x1 = 0.5082
  excess molar enthalpy: -0.0609 ± 0.00143 kcal/mol
[3]; x1 = 0.5746
  excess molar enthalpy: -0.0598 ± 0.00143 kcal/mol
[3]; x1 = 0.6509
  excess molar enthalpy: -0.0569 ± 0.0012 kcal/mol
[3]; x1 = 0.7385
  excess molar enthalpy: -0.049 ± 0.0012 kcal/mol
[3]; x1 = 0.8389
  excess molar enthalpy: -0.0344 ± 0.000717 kcal/mol
[3]; x1 = 0.9272
  excess molar enthalpy: -0.0184 ± 0.000478 kcal/mol

## CCCOC=O [propyl methanoate] + ClCCCCl
[2]; x1 = 0.0604
  mass density: 1161.58 ± 7 kg/m3
[2]; x1 = 0.1163
  mass density: 1145.6 ± 6.5 kg/m3
[2]; x1 = 0.1772
  mass density: 1128.25 ± 5.9 kg/m3
[2]; x1 = 0.2336
  mass density: 1112.22 ± 5.5 kg/m3
[2]; x1 = 0.2937
  mass density: 1095.19 ± 5 kg/m3
[2]; x1 = 0.3531
  mass density: 1078.45 ± 4.6 kg/m3
[2]; x1 = 0.4676
  mass density: 1046.35 ± 3.9 kg/m3
[2]; x1 = 0.5255
  mass density: 1030.24 ± 3.5 kg/m3
[2]; x1 = 0.5854
  mass density: 1013.57 ± 3.2 kg/m3
[2]; x1 = 0.6437
  mass density: 997.42 ± 2.9 kg/m3
[2]; x1 = 0.7051
  mass density: 980.49 ± 2.6 kg/m3
[2]; x1 = 0.7636
  mass density: 964.45 ± 2.4 kg/m3
[2]; x1 = 0.8238
  mass density: 947.98 ± 2.1 kg/m3
[2]; x1 = 0.8823
  mass density: 932.02 ± 1.9 kg/m3
[2]; x1 = 1
  mass density: 899.81 ± 1.6 kg/m3
[3]; x1 = 0.065
  excess molar enthalpy: -0.00359 ± 0.000239 kcal/mol
[3]; x1 = 0.1452
  excess molar enthalpy: -0.00741 ± 0.000239 kcal/mol
[3]; x1 = 0.2308
  excess molar enthalpy: -0.0129 ± 0.000478 kcal/mol
[3]; x1 = 0.3182
  excess molar enthalpy: -0.0189 ± 0.000478 kcal/mol
[3]; x1 = 0.3939
  excess molar enthalpy: -0.0237 ± 0.000717 kcal/mol
[3]; x1 = 0.4578
  excess molar enthalpy: -0.0251 ± 0.000717 kcal/mol
[3]; x1 = 0.5145
  excess molar enthalpy: -0.0272 ± 0.000717 kcal/mol
[3]; x1 = 0.5379
  excess molar enthalpy: -0.027 ± 0.000717 kcal/mol
[3]; x1 = 0.5862
  excess molar enthalpy: -0.0268 ± 0.000717 kcal/mol
[3]; x1 = 0.6669
  excess molar enthalpy: -0.0246 ± 0.000717 kcal/mol
[3]; x1 = 0.7509
  excess molar enthalpy: -0.021 ± 0.000478 kcal/mol
[3]; x1 = 0.8484
  excess molar enthalpy: -0.0148 ± 0.000478 kcal/mol
[3]; x1 = 0.9347
  excess molar enthalpy: -0.00765 ± 0.000239 kcal/mol

## CCCOC(=O)CC [propyl propanoate]
[1]
  mass density: 875.61 ± 0.23 kg/m3
